Measured values from PubChem BioAssay (NCI).
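Step 1: Grow cells in 96-well plates. Step 2: Expose to compound for 48 hours at 5 concentrations. Step 3: Interpolate endpoints linearly; if unreached, use highest concentration. At the GI50, growth is halved. At the TGI there is no net growth.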

Experiments:
Assay in all cases: NCI anticancer screen, dose series, 48 h
MALME-3M melanoma = test system: MALME-3M melanoma
SNB-19 CNS = test system: SNB-19 CNS
OVCAR-3 ovarian = test system: OVCAR-3 ovarian
SR leukemia = test system: SR leukemia
RPMI-8226 leukemia = test system: RPMI-8226 leukemia
M14 melanoma = test system: M14 melanoma
HCC-2998 colon = test system: HCC-2998 colon
OVCAR-8 ovarian = test system: OVCAR-8 ovarian
KM20L2 colon = test system: KM20L2 colon
DMS 114 small cell lung = test system: DMS 114 small cell lung

SMILES	GI50 (MALME-3M melanoma) [µM]	TGI (MALME-3M melanoma) [µM]	GI50 (SNB-19 CNS) [µM]	TGI (SNB-19 CNS) [µM]	GI50 (OVCAR-3 ovarian) [µM]	TGI (OVCAR-3 ovarian) [µM]	GI50 (SR leukemia) [µM]	GI50 (RPMI-8226 leukemia) [µM]	TGI (RPMI-8226 leukemia) [µM]	GI50 (M14 melanoma) [µM]	TGI (M14 melanoma) [µM]	GI50 (HCC-2998 colon) [µM]	TGI (HCC-2998 colon) [µM]	GI50 (OVCAR-8 ovarian) [µM]	TGI (OVCAR-8 ovarian) [µM]	TGI (SR leukemia) [µM]	TGI (KM20L2 colon) [µM]	TGI (DMS 114 small cell lung) [µM]	GI50 (KM20L2 colon) [µM]	GI50 (DMS 114 small cell lung) [µM]
O=C(Nc1cccc(C(F)(F)F)c1)Oc1ccc(Cl)c2cccnc12	1.18	3.96	2.52	> 32.8	0.832	6.93	0.447	0.561	4.22	1.49	7.83	3.51	12.8	0.906	6.16					
Nc1ccc(/C=C/c2ccc3cccnc3c2)cc1		> 100		> 100		> 100			> 100		> 100		> 100		> 100	> 100				
C[C@@H]1CC[C@@]2(NC1)O[C@H]1C[C@H]3[C@@H]4CC[C@H]5C[C@@H](O)CC[C@]5(C)[C@H]4CC[C@]3(C)[C@H]1[C@@H]2C		> 100		> 100		> 100			85.6		> 100		> 100		54.7	> 100				
O=C([O-])CC(=O)[O-].[NH-][C@@H]1CCCC[C@H]1[NH-].[Pt+4]	6.4	> 100	32.1	> 100	24.9	> 100		1.05	> 100	16.7	> 100	18.9	> 100	24.5	> 100		> 100			
N#Cc1cc(S(=O)(=O)Nc2nc3ccccc3o2)c(SCc2ccccc2)cc1Cl	34.5	69.9	20.9	56.1	24.2	52.3	76.5	30.9	> 100	25.4	52.7	19	34.3	5.1	63.2	> 100				
C=C1C(OC(C)=O)CC(OC(C)=O)C2(C)C(OC(C)=O)C(OC(C)=O)C3=C(C)C(OC(=O)/C=C/c4ccccc4)CC(C(OC(C)=O)C12)C3(C)C (centres undefined)		> 100		> 100					> 100		> 100		> 100		> 100	> 100	> 100	> 100		
O=C1NC2C(O)CCCCC2C12CCCCC2 (centres undefined)		> 100		> 100		> 100			> 100		> 100				> 100			> 100		
COC(=O)N/N=C(\C)CC(=O)Nc1ccc(Cl)cc1		> 100				> 100			> 100		> 100		> 100		> 100		> 100	> 100		
CC[C@H](C)[C@H](NC(=O)c1cccn1C)C(=O)N(C)[C@H](C[C@@H](OC(C)=O)c1nc(C(=O)N[C@@H](Cc2ccccc2)C[C@H](C)C(=O)OC)cs1)C(C)C	11.1	> 33.3	0.196	> 33.3	0.0809	0.272	0.0546	0.129	> 18.8	0.131	0.832	0.166	> 33.3	0.354	> 33.3	> 33.3				
COc1cc2nccc(Oc3ccc(NC(=O)c4cn(C(C)C)c(=O)n(-c5ccc(F)cc5)c4=O)cc3F)c2cc1OC	2.39	11.8	> 100	> 100	> 41.4	> 100	> 100	> 100	> 100	63.3	> 100	> 100	> 100	> 48.4	> 100	> 100				
COc1cc(NCCCCCN=C(N)NC(N)=NC(C)C)c2ncccc2c1	0.43	1.91	2.56	12.8	0.217	0.759	2.08	1.26	20	6.12	20.1	0.952	4.96	3.08	17.2	15.8				
C1=CCCC=CCC1.C[PH+](C)C.C[PH+](C)C.C[PH+](C)C.[Cl-].[Ir]	22.9	61.5			29.6	77.4				> 100	> 100	91.4	> 100	35.2	> 100		> 100		> 100	
C[CH2][Sn]([CH2]C)([O]C(=O)c1ccc(F)cc1)[O]C(=O)c1ccc(F)cc1	16.6	34.2	16.7	30.5	> 48	> 82.2		20.1	53.9	17.5	33.4	90.9	> 100	> 52.9	> 79.2		> 100	39.9	72.6	18.8
COc1ccc2[nH]c(C(=O)OCc3ccc4c(Cl)cc(Cl)c(O)c4n3)cc2c1	1.48	2.82	2.18	5.69	0.513	1.83	0.38	0.803	3.86	1.44	2.91	1.64	3.29	1.15	2.6	3.7				
CC[PH+](CC)CC.[Cl][Au]	1.27	2.56	2.26	6.14	1.89	3.42		1.03	3.84	1.17	2.53	6.78	12	2.19	5.21		8.73		4.25	
CC1=CCCC2C(C=O)(C1)CC(C)C2(CO)CC/C(=C/CO)CO (centres undefined)		> 100				> 100			> 100		> 100		> 100		> 100			> 100		
CNC(=O)c1cncc(/C=C/c2ccccc2Cl)c1	> 25	> 25	> 25	> 25	> 25	> 25	> 22.9	> 25	> 25	> 25	> 25	> 25	> 25	> 25	> 25	> 25				
